Patent US11578079B2, “SUMO inhibitor compounds and uses thereof” (CITY OF HOPE, priority 2018, dated 2023)

How the values were obtained:
c-Myc = c-Myc activity (Table I, biological activities); design: key: + (less active); ++ (active); +++ (most active)
SUMO = molecular target: T1, SUMO (Homo sapiens, UniProt Q9UBT2); assay: SUMO activity (Table I, biological activities); format: biochemical; design: key: + (less active); ++ (active); +++ (most active)
T1 sequence (Q9UBT2 1-640): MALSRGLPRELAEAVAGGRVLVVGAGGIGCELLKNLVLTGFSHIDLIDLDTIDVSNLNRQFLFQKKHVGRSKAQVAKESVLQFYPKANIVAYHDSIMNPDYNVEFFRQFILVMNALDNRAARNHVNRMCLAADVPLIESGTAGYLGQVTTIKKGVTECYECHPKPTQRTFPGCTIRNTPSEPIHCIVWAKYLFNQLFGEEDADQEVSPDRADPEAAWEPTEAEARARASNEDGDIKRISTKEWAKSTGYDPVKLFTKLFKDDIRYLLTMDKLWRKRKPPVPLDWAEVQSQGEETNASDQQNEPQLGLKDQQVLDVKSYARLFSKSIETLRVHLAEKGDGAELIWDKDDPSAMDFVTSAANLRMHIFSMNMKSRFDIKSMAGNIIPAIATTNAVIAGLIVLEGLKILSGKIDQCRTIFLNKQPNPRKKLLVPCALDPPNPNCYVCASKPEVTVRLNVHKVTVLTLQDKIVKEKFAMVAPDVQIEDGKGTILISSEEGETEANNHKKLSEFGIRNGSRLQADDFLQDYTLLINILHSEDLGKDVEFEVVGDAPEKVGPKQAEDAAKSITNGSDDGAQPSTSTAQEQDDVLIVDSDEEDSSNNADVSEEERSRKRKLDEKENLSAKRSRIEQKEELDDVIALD
T1 sequence (Q9UBE0 1-346 partner): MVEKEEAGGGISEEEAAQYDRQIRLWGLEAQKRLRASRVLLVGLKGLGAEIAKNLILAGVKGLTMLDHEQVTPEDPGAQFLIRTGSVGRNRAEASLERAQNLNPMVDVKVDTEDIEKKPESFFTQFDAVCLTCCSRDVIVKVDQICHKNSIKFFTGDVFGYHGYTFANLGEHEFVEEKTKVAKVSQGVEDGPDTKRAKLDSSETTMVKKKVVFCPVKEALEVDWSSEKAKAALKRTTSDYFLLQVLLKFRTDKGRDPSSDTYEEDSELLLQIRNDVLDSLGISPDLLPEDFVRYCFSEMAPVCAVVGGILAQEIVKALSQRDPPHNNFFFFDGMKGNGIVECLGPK

SMILES | SUMO (SUMO) | c-Myc (c-Myc)
COC(=O)C1=C(C(=O)NNc2cc(C(F)(F)F)cc(C(F)(F)F)c2)C2(C(Cc3ccccc3)Nc3cc(F)cc(F)c3)C=CC1O2 (centres unmarked) [Compound 316] | ++ | +
COC(=O)C1=C(C(=O)NCc2ccccn2)C2C=CC1(C(Cc1ccccc1)Nc1ccccc1)O2 (centres unmarked) [Compound 396] | + | ++
COC(=O)C1=C(C(=O)NC2CCN(C(C)C)CC2)C2CCC1(C(Cc1ccccc1)Nc1ccccc1)O2 (centres unmarked) [Compound 366] | + | +
C=CCCC(Nc1ccccc1)C12C=CC(O1)C(C(=O)OC)=C2C(=O)OC (centres unmarked) [Compound 181] | ++ | +
COC(=O)C1=C(C(=O)NC2CCN(C(=O)C3CCN(C)CC3)CC2)C2C=CC1(C(Cc1ccccc1)Nc1ccccc1)O2 (centres unmarked) [Compound 378] | ++ | +
COC(=O)C1=C(C(=O)Nc2cnc(C)nc2)C2C=CC1(C(Cc1ccccc1)Oc1ccccc1)O2 (centres unmarked) [Compound 480] | ++ | +
CCN(CC)CCNC(=O)C1=C(C(=O)OC)C2C=CC1(C(Cc1ccccc1)Nc1cc(F)cc(F)c1)O2 (centres unmarked) [Compound 402] | ++ | +
COC(=O)C1=C(C(=O)NC2CCN(C(=O)c3ccc(F)cc3)CC2)C2CCC1(C(Cc1ccccc1)Nc1ccccc1)O2 (centres unmarked) [Compound 370] | + | +
COC(=O)C1=C(C(=O)NC2CCN(C)CC2)C2C=CC1(C(Cc1ccccc1)Oc1ccccc1)O2 (centres unmarked) [Compound 292] | ++ | ++
CCN(CC)CCNC(=O)C1=C(C(=O)OC)C2(C(Cc3ccc(C)cc3)Nc3cc(F)cc(F)c3)C=CC1O2 (centres unmarked) [Compound 430] | ++ | ++
CNCCNC(=O)C1=C(C(=O)OC)C2(C(Cc3ccccc3)Nc3ccccc3)C=CC1O2 (centres unmarked) [Compound 437] | + | +
COC(=O)C1=C(C(=O)NC2CN(C)C2)C2C=CC1(C(Cc1ccccc1)Nc1ccccc1)O2 (centres unmarked) [Compound 492] | +++ | +
C=CCC(Nc1ccccc1)C12C=CC(O1)C(C(=O)NCCN(CC)CC)=C2C(=O)OC (centres unmarked) [Compound 416] | ++ | +
COC(=O)C1=C(C(=O)NC2CCN(C)CC2)C2CCC1(C(Cc1ccccc1)Nc1ccccc1)O2 (centres unmarked) [Compound 304] | + | +
COC(=O)C1=C(C(N)=O)C2C=CC1(C(Cc1ccccc1)Nc1cc(F)cc(Cl)c1)O2 (centres unmarked) [Compound 217] | + | ++
COC(=O)C1=C(C(=O)O)C2C=CC1(C(Cc1ccccc1)Nc1cc(F)cc(Cl)c1)O2 (centres unmarked) [Compound 214] | ++ | +
CCOc1cccc(NC(Cc2ccccc2)C23C=CC(O2)C(C(=O)NC2CCN(C)CC2)=C3C(=O)OC)c1 (centres unmarked) [Compound 247] | +++ | +
COC(=O)C1=C(C(=O)NC2CCN(C(C)=O)CC2)C2C=CC1(C(Cc1ccccc1)Nc1ccccc1)O2 (centres unmarked) [Compound 287] | ++ | ++
COC(=O)C1=C(C(=O)OC)C2(C(Nc3ccccc3)C3CCCC3)C=CC1O2 (centres unmarked) [Compound 186] | ++ | +
COC(=O)C1=C(C(=O)NC(C)C(N)=O)C2C=CC1(C(Cc1ccccc1)Nc1cc(F)cc(F)c1)O2 (centres unmarked) [Compound 243] | ++ | +
COC(=O)C1=C(C(=O)NC2CCN(C)CC2)C2C=CC1(C(Cc1ccccc1)Nc1cccc(Oc3ccccc3)c1)O2 (centres unmarked) [Compound 320] | +++ | ++
COC(=O)C1=C(C(=O)NC2CCN(C(=O)C3CC3)CC2)C2C=CC1(C(Cc1ccccc1)Nc1ccccc1)O2 (centres unmarked) [Compound 377] | ++ | +
COC(=O)C1=C(C(=O)NCC2CCCN2C)C2C=CC1(C(Cc1ccccc1)Nc1ccccc1)O2 (centres unmarked) [Compound 418] | ++ | ++
COC(=O)C1=C(C(=O)NCCN(C)C)C2C=CC1(C(Cc1ccccc1)Nc1c(F)cccc1F)O2 (centres unmarked) [Compound 432] | ++ | +
CCN(CC)CCNC(=O)C1=C(C(=O)OC)C2(C(Cc3ccc(C)cc3)Nc3cc(F)cc(F)c3)C=CC1O2 (centres unmarked) [Compound 429] | ++ | ++
Cc1ccc(S(=O)(=O)C2=CC3(C4OCCO4)C=CC2O3)cc1 (centres unmarked) [Compound 516] | ++ | +
COC(=O)C1=C(C(=O)NC2CCN(C)CC2)C2C=CC1(C(Cc1ccccc1)Nc1c(F)cccc1F)O2 (centres unmarked) [Compound 258] | ++ | +
COC(=O)C1=C(C(=O)NNc2cc(C(F)(F)F)cc(C(F)(F)F)c2)C2C=CC1(C(Cc1ccccc1)Nc1cc(F)cc(F)c1)O2 (centres unmarked) [Compound 317] | + | +
COC(=O)C1=C(C(=O)NCCN2CCCC2)C2C=CC1(C(Cc1ccccc1)Nc1ccccc1)O2 (centres unmarked) [Compound 406] | +++ | ++
CNC(=O)C1=C(C(=O)OC)C2(C(Cc3ccccc3)Nc3cc(F)cc(F)c3)C=CC1O2 (centres unmarked) [Compound 208] | ++ | +

The next lines start with results.

SUMO (SUMO) | SMILES | c-Myc (c-Myc)
++ | COC(=O)C1=C(C(=O)Nc2ccc(CN(C)C)cc2)C2C=CC1(C(Cc1ccccc1)Nc1ccccc1)O2 (centres unmarked) [Compound 506] | +
+ | COC(=O)C1=C(C(=O)Nc2ccc3c(c2)OCO3)C2C=CC1(C(Cc1ccccc1)Nc1ccccc1)O2 (centres unmarked) [Compound 309] | +
+ | COC(=O)C1=C(C(=O)Nc2ccc(N3CCN(C)CC3)c(F)c2)C2C=CC1(C(Cc1ccccc1)Nc1ccccc1)O2 (centres unmarked) [Compound 494] | +
+ | CCOC(=O)C1=C(C(=O)Nc2ccc(C)nc2)C2C=CC1(C(Nc1ccccc1)c1ccc(CN3CCOCC3)cc1)O2 (centres unmarked) [Compound 573] | +
++ | CCOC(=O)C1=C(C(=O)Nc2ccc(OC(F)(F)F)cc2)C2C=CC1(C(Nc1ccccc1)c1ccc(CN3CCOCC3)cc1)O2 (centres unmarked) [Compound 599] | ++
+ | CCOC(=O)C1=C(C(=O)Nc2ccccc2Oc2ccccc2)C2C=CC1(C(Nc1ccccc1)c1ccc(CN3CCOCC3)cc1)O2 (centres unmarked) [Compound 608] | +
++ | COC(=O)C1=C(C(=O)NC2CCN(C(=O)c3ccc(F)cc3)CC2)C2C=CC1(C(Cc1ccccc1)Nc1ccccc1)O2 (centres unmarked) [Compound 297] | ++
+ | CCOC(=O)C1=C(C(=O)Nc2ccccc2OC)C2C=CC1(C(Nc1ccccc1)c1ccc(CN3CCOCC3)cc1)O2 (centres unmarked) [Compound 597] | ++
++ | CCOC(=O)C1=C(C(=O)Nc2ccccc2F)C2C=CC1(C(Nc1ccccc1)c1ccc(CN3CCOCC3)cc1)O2 (centres unmarked) [Compound 595] | +
++ | CCOC(=O)C1=C(C(=O)NCCN(C)C)C2C=CC1(C(Nc1ccccc1)c1ccc(CN3CCOCC3)cc1)O2 (centres unmarked) [Compound 571] | +
++ | COC(=O)C1=C(C(=O)NCCN(C)C)C2C=CC1(C(Cc1ccc(C(F)(F)F)cc1)Nc1ccccc1)O2 (centres unmarked) [Compound 423] | ++
++ | CCOC(=O)C1=C(C(N)=O)C2C=CC1(C(Nc1ccccc1)c1ccc(CN3CCOCC3)cc1)O2 (centres unmarked) [Compound 552] | +
+ | COC(=O)C1=C(C(=O)Nc2ccc(OC)c(F)c2)C2C=CC1(C(Cc1ccccc1)Nc1ccccc1)O2 (centres unmarked) [Compound 308] | +
+ | CCOC(=O)C1=C(C(=O)Nc2ccc(C)c(F)c2)C2C=CC1(C(Nc1ccc(C#N)cc1)c1ccc(CN3CCOCC3)cc1)O2 (centres unmarked) [Compound 612] | +
+ | CCOC(=O)C1=C(C(=O)Nc2ccc(C)c(F)c2)C2C=CC1(C(Nc1ccc(OC)cc1)c1ccc(CN3CCOCC3)cc1)O2 (centres unmarked) [Compound 621] | +
+ | CCOC(=O)C1=C(C(=O)Nc2ccc(C)c(F)c2)C2(C)C=CC1(C(Nc1ccccc1)c1ccc(CN3CCOCC3)cc1)O2 (centres unmarked) [Compound 579] | +
++ | COC(=O)C1=C(C(=O)Nc2ccncc2)C2C=CC1(C(Cc1ccccc1)Nc1cc(F)cc(Cl)c1)O2 (centres unmarked) [Compound 220] | +
++ | CCOC(=O)C1=C(C(=O)Nc2ccccc2C)C2C=CC1(C(Nc1ccccc1)c1ccc(CN3CCOCC3)cc1)O2 (centres unmarked) [Compound 591] | ++
+ | COC(=O)C1=C(C(=O)Nc2ccc(OC)cc2OC)C2C=CC1(C(Cc1ccccc1)Nc1ccccc1)O2 (centres unmarked) [Compound 353] | +
